# Reference: US10112899B2 (ViiV HEALTHCARE UK LIMITED, priority 2014, dated 2018)
# Tested on: HIV in the HTLV-1 transformed cell line MT-4
# Assay: organism not typed
# Type: cell-based
# Settings: MT4, 96 h, MT-4 cells; luciferase/cell titer glo readout after 96 hours; 10 point dose response
row,SMILES,IC50 [nM]
1,"Cc1ccc(-c2c(C)c3c(c(C)c2C(OC(C)(C)C)C(=O)O)CN(Cc2ccccc2)C3)cc1 (stereo not drawn) [Example 9, 2-(2-Benzyl-4,7-dimethyl-6-(p-tolyl)isoindolin-5-yl)-2-(tert-butoxy)acetic acid]",98
2,"Cc1ccc(-c2c(C)c3c(c(C)c2C(OC(C)(C)C)C(=O)O)CN(CC2CCCCC2)C3)cc1 (stereo not drawn) [Example 10, 2-(tert-butoxy)-2-(2-(cyclohexylmethyl)-4,7-dimethyl-6-(p-tolyl)isoindolin-5-yl)acetic acid]",71
3,"Cc1ccc(-c2c(C)c3c(c(C)c2[C@H](OC(C)(C)C)C(=O)O)CN(Cc2ccncc2)C3)cc1 [Example 11, (S)-2-(tert-butoxy)-2-(4,7-dimethyl-2-(pyridin-4-ylmethyl)-6-(p-tolyl)isoindolin-5-yl)acetic acid]",174
4,"Cc1ccc(-c2c(C)c3c(c(C)c2[C@H](OC(C)(C)C)C(=O)O)CN(CC2CCOCC2)C3)cc1 [Example 12, (S)-2-(tert-butoxy)-2-(4,7-dimethyl-2-((tetrahydro-2H-pyran-4-yl)methyl)-6-(p-tolyl)isoindolin-5-yl)acetic acid]",820
5,"Cc1ccc(-c2c(C)c3c(c(C)c2[C@H](OC(C)(C)C)C(=O)O)CN(Cc2cccc4ccccc24)C3)cc1 [Example 13, (S)-2-(tert-Butoxy)-2-(4,7-dimethyl-2-(naphthalen-1-ylmethyl)-6-(p-tolyl)isoindolin-5-yl)acetic acid]",44
6,"Cc1ccc(-c2c(C)c3c(c(C)c2[C@H](OC(C)(C)C)C(=O)O)CN(C2CCC(C)(C)CC2)C3)cc1 [Example 14, (S)-2-(tert-Butoxy)-2-(2-(4,4-dimethylcyclohexyl)-4,7-dimethyl-6-(p-tolyl)isoindolin-5-yl)acetic acid]",118
7,"Cc1ccc(-c2c(C)c3c(c(C)c2C(OC(C)(C)C)C(=O)O)CN(S(C)(=O)=O)C3)cc1 (stereo not drawn) [Example 15, 2-(tert-Butoxy)-2-(4,7-dimethyl-2-(methylsulfonyl)-6-(p-tolyl)isoindolin-5-yl)acetic acid]",2130
8,"Cc1ccc(-c2c(C)c3c(c(C)c2C(OC(C)(C)C)C(=O)O)CN(S(=O)(=O)c2cccc4ccccc24)C3)cc1 (stereo not drawn) [Example 16, 2-(tert-Butoxy)-2-(4,7-dimethyl-2-(naphthalen-1-ylsulfonyl)-6-(p-tolyl)isoindolin-5-yl)acetic acid]",62
9,"Cc1ccc(-c2c(C)c3c(c(C)c2C(OC(C)(C)C)C(=O)O)CN(C(=O)OCc2ccccc2)C3)cc1 (stereo not drawn) [Example 17, 2-(2-((Benzyloxy)carbonyl)-4,7-dimethyl-6-(p-tolyl)isoindolin-5-yl)-2-(tert-butoxy)acetic acid]",1280
10,"Cc1ccc(-c2c(C)c3c(c(C)c2[C@H](OC(C)(C)C)C(=O)O)CN(Cc2ccc(Cl)cc2)C3)cc1 [Example 18, (S)-2-(tert-butoxy)-2-(2-(4-chlorobenzyl)-4,7-dimethyl-6-(p-tolyl)isoindolin-5-yl)acetic acid]",75
11,"COc1ccc(CN2Cc3c(C)c(-c4ccc(C)cc4)c([C@H](OC(C)(C)C)C(=O)O)c(C)c3C2)cc1 [Example 19, (S)-2-(tert-butoxy)-2-(2-(4-methoxybenzyl)-4,7-dimethyl-6-(p-tolyl)isoindolin-5-yl)acetic acid]",340
12,"Cc1ccc(CN2Cc3c(C)c(-c4ccc(C)cc4)c([C@H](OC(C)(C)C)C(=O)O)c(C)c3C2)cc1 [Example 20, (S)-2-(tert-butoxy)-2-(4,7-dimethyl-2-(4-methylbenzyl)-6-(p-tolyl)isoindolin-5-yl)acetic acid]",115
13,"Cc1ccc(-c2c(C)c3c(c(C)c2[C@H](OC(C)(C)C)C(=O)O)CN(Cc2ccccc2F)C3)cc1 [Example 21, (S)-2-(tert-butoxy)-2-(2-(2-fluorobenzyl)-4,7-dimethyl-6-(p-tolyl)isoindolin-5-yl)acetic acid]",40
14,"Cc1ccc(-c2c(C)c3c(c(C)c2[C@H](OC(C)(C)C)C(=O)O)CN(Cc2cccc(F)c2)C3)cc1 [Example 22, (S)-2-(tert-butoxy)-2-(2-(3-fluorobenzyl)-4,7-dimethyl-6-(p-tolyl)isoindolin-5-yl)acetic acid]",20
15,"Cc1ccc(-c2c(C)c3c(c(C)c2[C@H](OC(C)(C)C)C(=O)O)CN(Cc2nc(C)c[nH]2)C3)cc1 [Example 23, (S)-2-(tert-butoxy)-2-(4,7-dimethyl-2-((4-methyl-1H-imidazol-2-yl)methyl)-6-(p-tolyl)isoindolin-5-yl)acetic acid]",203
16,"COc1cccc(CN2Cc3c(C)c(-c4ccc(C)cc4)c([C@H](OC(C)(C)C)C(=O)O)c(C)c3C2)c1 [Example 24, (S)-2-(tert-butoxy)-2-(2-(3-methoxybenzyl)-4,7-dimethyl-6-(p-tolyl)isoindolin-5-yl)acetic acid]",12

row,SMILES,IC50 [nM]
1,"Cc1ccc(-c2c(C)c3c(c(C)c2[C@H](OC(C)(C)C)C(=O)O)CN(CC(C)C)C3)cc1 [Example 25, (S)-2-(tert-butoxy)-2-(2-isobutyl-4,7-dimethyl-6-(p-tolyl)isoindolin-5-yl)acetic acid]",946
2,"Cc1ccc(-c2c(C)c3c(c(C)c2[C@H](OC(C)(C)C)C(=O)O)CN(Cc2ccc(Cl)c(Cl)c2)C3)cc1 [Example 26, (S)-2-(tert-butoxy)-2-(2-(3,4-dichlorobenzyl)-4,7-dimethyl-6-(p-tolyl)isoindolin-5-yl)acetic acid]",54
3,"Cc1ccc(-c2c(C)c3c(c(C)c2[C@H](OC(C)(C)C)C(=O)O)CN(Cc2ccc(C(F)(F)F)cc2)C3)cc1 [Example 27, (S)-2-(tert-butoxy)-2-(4,7-dimethyl-6-(p-tolyl)-2-(4-(trifluoromethyl)benzyl)isoindolin-5-yl)acetic acid]",932
4,"Cc1ccc(-c2c(C)c3c(c(C)c2[C@H](OC(C)(C)C)C(=O)O)CN(Cc2cccc(C(F)(F)F)c2)C3)cc1 [Example 28, (S)-2-(tert-butoxy)-2-(4,7-dimethyl-6-(p-tolyl)-2-(3-(trifluoromethyl)benzyl)isoindolin-5-yl)acetic acid]",94
5,"Cc1ccc(-c2c(C)c3c(c(C)c2[C@H](OC(C)(C)C)C(=O)O)CN(Cc2cccc(-c4ccccc4)c2)C3)cc1 [Example 29, (S)-2-(2-([1,1′-biphenyl]-3-ylmethyl)-4,7-dimethyl-6-(p-tolyl)isoindolin-5-yl)-2-(tert-butoxy)acetic acid]",184
6,"Cc1ccc(-c2c(C)c3c(c(C)c2[C@H](OC(C)(C)C)C(=O)O)CN(CC2CCCCC2)C3)cc1 [Example 30, (S)-2-(tert-butoxy)-2-(2-(cyclohexylmethyl)-4,7-dimethyl-6-(p-tolyl)isoindolin-5-yl)acetic acid]",47
7,"Cc1ccc(-c2c(C)c3c(c(C)c2[C@H](OC(C)(C)C)C(=O)O)CN(C2CCCC(c4ccccc4)C2)C3)cc1 (stereo partly drawn) [Example 31, (2S)-2-(tert-butoxy)-2-(4,7-dimethyl-2-(3-phenylcyclohexyl)-6-(p-tolyl)isoindolin-5-yl)acetic acid]",203
8,"Cc1ccc(-c2c(C)c3c(c(C)c2[C@H](OC(C)(C)C)C(=O)O)CN(C2CCC[C@@H](C)C2)C3)cc1 (stereo partly drawn) [Example 32, (2S)-2-(tert-butoxy)-2-(4,7-dimethyl-2-((3R)-3-methylcyclohexyl)-6-(p-tolyl)isoindolin-5-yl)acetic acid]",723
9,"Cc1ccc(-c2c(C)c3c(c(C)c2[C@H](OC(C)(C)C)C(=O)O)CN(C(=O)N[C@H]2CC[C@H](C)CC2)C3)cc1 [Example 33, (S)-2-(tert-butoxy)-2-(4,7-dimethyl-2-(((1r,4S)-4-methylcyclohexyl)carbamoyl)-6-(p-tolyl)isoindolin-5-yl)acetic acid]",616
10,"Cc1ccc(-c2c(C)c3c(c(C)c2[C@H](OC(C)(C)C)C(=O)O)CN(C(=O)NCc2ccccc2)C3)cc1 [Example 34, (S)-2-(2-(benzylcarbamoyl)-4,7-dimethyl-6-(p-tolyl)isoindolin-5-yl)-2-(tert-butoxy)acetic acid]",86
11,"Cc1ccc(-c2c(C)c3c(c(C)c2[C@H](OC(C)(C)C)C(=O)O)CN(C(=O)N2CCCC2)C3)cc1 [Example 35, (S)-2-(tert-butoxy)-2-(4,7-dimethyl-2-(pyrrolidine-1-carbonyl)-6-(p-tolyl)isoindolin-5-yl)acetic acid]",12
12,"Cc1ccc(-c2c(C)c3c(c(C)c2[C@H](OC(C)(C)C)C(=O)O)CN(CCCc2cccc(F)c2)C3)cc1 [Example 38, (2S)-2-(tert-butoxy)-2-{2-[3-(3-fluorophenyl)propyl]-4,7-dimethyl-6-(4-methylphenyl)-2,3-dihydro-1H-isoindol-5-yl}acetic acid]",1230
13,"Cc1ccc(-c2c(C)c3c(c(C)c2[C@H](OC(C)(C)C)C(=O)O)CN(CCc2ccccc2)C3)cc1 [Example 39, (2S)-2-(tert-butoxy)-2-[4,7-dimethyl-6-(4-methylphenyl)-2-(2-phenylethyl)-2,3-dihydro-1H-isoindol-5-yl]acetic acid]",872
14,"Cc1ccc(-c2c(C)c3c(c(C)c2[C@H](OC(C)(C)C)C(=O)O)CN(CC2CCCN2C(=O)OC(C)(C)C)C3)cc1 (stereo partly drawn) [Example 40, (2S)-2-(tert-butoxy)-2-[2-({1-[(tert-butoxy)carbonyl]pyrrolidin-2-yl}methyl)-4,7-dimethyl-6-(4-methylphenyl)-2,3-dihydro-1H-isoindol-5-yl]acetic acid]",3430
15,"Cc1ccc(-c2c(C)c3c(c(C)c2[C@H](OC(C)(C)C)C(=O)O)CN(Cc2cccnc2)C3)cc1 [Example 41, (2S)-2-(tert-butoxy)-2-[4,7-dimethyl-6-(4-methylphenyl)-2-(pyridin-3-ylmethyl)-2,3-dihydro-1H-isoindol-5-yl]acetic acid]",50
16,"CNC(=O)c1cccc(CN2Cc3c(C)c(-c4ccc(C)cc4)c([C@H](OC(C)(C)C)C(=O)O)c(C)c3C2)c1 [Example 43, (2S)-2-(tert-butoxy)-2-(4,7-dimethyl-2-{[3-(methylcarbamoyl)phenyl]methyl}-6-(4-methylphenyl)-2,3-dihydro-1H-isoindol-5-yl)acetic acid]",937

# Same assay, conditions: MT-4 cells; luciferase/cell titer glo readout after 96 hours; 10 point dose response
row,SMILES,IC50 [nM]
1,"Cc1ccc(-c2c(C)c3c(c(C)c2[C@H](OC(C)(C)C)C(=O)O)CN([C@@H]2CCC[C@@H](C)C2)C3)cc1 [Example 37, (2S)-2-(tert-butoxy)-2-{4,7-dimethyl-2-[(1R,3R)-3-methylcyclohexyl]-6-(4-methylphenyl)-2,3-dihydro-1H-isoindol-5-yl}acetic acid]",723
